Numbering of substitutions follows the chain as printed.
What was measured:
CBCmut = biological target: T1, CBCmut (Homo sapiens, UniProt P52298, Y50A); experiment: ITC, m^7GTP binding to CBCmut; conditions: 25 °C, pH 7.8, m^7GTP titrated to CBCmut, mean ± SD of 2 experiments
T1 sequence (P52298 1-156 Y50A): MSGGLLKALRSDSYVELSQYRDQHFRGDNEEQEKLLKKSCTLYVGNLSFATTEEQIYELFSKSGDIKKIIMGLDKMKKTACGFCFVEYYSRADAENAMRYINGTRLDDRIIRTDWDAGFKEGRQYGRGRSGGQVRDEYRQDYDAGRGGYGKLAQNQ
T1 sequence (Q09161 20-790 Y461A/R610E/H651A partner): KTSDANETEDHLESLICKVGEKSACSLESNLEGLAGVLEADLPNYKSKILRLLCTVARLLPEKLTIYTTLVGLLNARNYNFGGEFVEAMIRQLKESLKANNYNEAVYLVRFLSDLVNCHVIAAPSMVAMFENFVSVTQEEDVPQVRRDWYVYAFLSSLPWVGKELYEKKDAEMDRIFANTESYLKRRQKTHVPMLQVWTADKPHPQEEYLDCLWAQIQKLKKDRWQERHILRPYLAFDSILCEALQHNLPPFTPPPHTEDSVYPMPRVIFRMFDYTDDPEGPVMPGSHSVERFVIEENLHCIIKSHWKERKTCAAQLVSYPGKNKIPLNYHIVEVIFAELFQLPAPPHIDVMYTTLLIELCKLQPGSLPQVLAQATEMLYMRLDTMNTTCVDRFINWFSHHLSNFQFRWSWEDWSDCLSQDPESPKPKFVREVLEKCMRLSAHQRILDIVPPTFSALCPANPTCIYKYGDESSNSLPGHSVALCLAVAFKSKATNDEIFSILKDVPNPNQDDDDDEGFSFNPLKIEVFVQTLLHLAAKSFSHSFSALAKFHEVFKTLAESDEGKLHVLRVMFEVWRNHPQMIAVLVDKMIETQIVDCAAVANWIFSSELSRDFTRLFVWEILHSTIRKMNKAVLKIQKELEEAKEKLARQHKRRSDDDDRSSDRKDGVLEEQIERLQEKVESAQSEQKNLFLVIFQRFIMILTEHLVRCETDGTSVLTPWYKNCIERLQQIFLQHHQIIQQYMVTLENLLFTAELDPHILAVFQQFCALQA
Method: (§1) For CBC, a triple mutant in CBP80 (Y461A/R610E/H651A) was combined with various mutations in CBP20 (Y50A, Y50A/Y89A, or Y50A/Y89A/D107R).
(§2) ITC experiments were performed on a MicroCal ITC200 system (Malvern). Proteins were dialyzed overnight in buffer 20 mM HEPES, 120 mM NaCl, 2 mM tris(2-carboxyethyl)phosphine, pH 7.8. Injections of 1.5 µl protein A were added at an interval of 120–180 s into 205 µl of protein B in the cell, with a stirring speed of 800 rpm at 25 °C. The experimental data were analysed with MicroCal ITC Origin and were fitted to a single-site binding equation.

CBC (6 mutations) = biological target: T2, CBC (6 mutations) (Homo sapiens, UniProt P52298, D107R/Y50A/Y89A); experiment: ITC, m^7GTP binding to CBC with triple mutants of both CBP20 and CBP80; conditions: 25 °C, pH 7.8, CBP80 Y461A/R610E/H651A + CBP20 Y50A/Y89A/D107R, mean ± SD of 2 experiments
T2 sequence (P52298 1-156 Y50A/Y89A/D107R): T1 sequence (P52298 1-156 Y50A) with Y89A, D107R
T2 sequence (Q09161 20-790 Y461A/R610E/H651A partner): T1 sequence (Q09161 20-790 Y461A/R610E/H651A partner)
Method: as §1, §2

C[n+]1cn([C@@H]2O[C@H](COP(=O)(O)OP(=O)([O-])OP(=O)(O)O)[C@@H](O)[C@H]2O)c2nc(N)[nH]c(=O)c21 [m^7GTP]
K D (CBCmut): as well as wild-type CBC | Kd (CBCmut; SD): 0.095 ± 0.024 µM | Kd (CBC (6 mutations)): 70 ± 4 µM

From paper PMC5670239, “Structural basis for mutually exclusive co-transcriptional nuclear cap-binding complexes with either NELF-E or ARS2” (Nature Communications, 2017)
